Converted amounts (≈) assume the structure as drawn.
Key:
[1] = Plasma pharmacokinetics of NBI-34060 (half-life, volume of distribution); type: in vivo, human
Excerpt: The mean plasma half-life of a sedative-hypnotic compound may be determined using well known techniques. Terminal half-life may be determined using standard pharmacokinetic calculations, such as those presented by Rolland and Tozer (Clinical Pharmacokinetics Concepts and Applications, 3rd. Ed., Chap. 3, 1995). in addition, software is commercially available which performs this calculation, such as the product sold under the tradename “WinNinlin™”(Prof. Ver. 1.5). […] This is estimated by linear regression analysis of the time vs. log concentration of the test compound.
In this experiment, commercially available plasma profiling software (GastroPlus™) (Simulations Plus Inc., CA.) was used to simulate the effects of varying controlled release profiles and pharmacokinetic parameters based on in vivo plasma concentrations of NBI-34060 as measured in 12-healthy male human subjects. […] This assumed that the lower CL drug would distribute to the same tissues as the higher CL drug, so that all half-life changes were because of differences in metabolism and/or renal clearance rather than in volumes. Two oral plasma concentration-time files were created (NBI-Target-Hi.opd and NBI-Target-Lo.opd) with plasma concentration-time points serving as targets (shown as a square in FIGS. 2, 3, 4 and 5). The requirements for Tmax2 for the high target was set at 100% of Tmax1.

CC(=O)N(C)c1cccc(-c2ccnc3c(C(=O)c4cccs4)cnn23)c1 [NBI-34060, N-methyl-N-(3-{3-[2-thienylcarbonyl]-pyrazolo-[1,5-a]-pyrimidin-7-yl}-phenyl)acetamide]
half-life ([1]; male, human, plasma half-life): ~1.3 h | Vd ([1]; one-compartment pharmacokinetic model, based on in vivo plasma concentrations in 12 healthy male human subjects): 159 L | resulting pH (Solubility in water; pH of the solution in water at approximately 20-30 μg/ml): approximately 8.0 | solubility (Solubility in water; water, pH 8, water): 20 to 30 µg/mL (≈ 53.1 to 79.7 µM)

Source: patent publication US6485746B1, “Controlled-release sedative-hypnotic compositions and methods related thereto” (Neurocrine Biosciences, Inc., priority 2000, dated 2002)
